Experiments:
Puccinia recondita [1] = assay: Curative control of brown rust on wheat caused by Puccinia recondita; format: in vivo; details: assessed after 8 days, efficacy in % of untreated control (90% infection), read-out: Observed activity (% infection); for inhibition at 0.063 ppm: 192 h; for inhibition at 0.25 ppm: sprayed 1 day after inoculation
Description: (§1) The active compounds were prepared as a stock solution comprising 25 mg of N-(trans-2-bicycloprop-2-ylphenyl)-3-difluoromethyl-1-methyl-1H-pyrazole-4-carboxamide (Ia), which was made up to 10 ml using a mixture of acetone and/or dimethyl sulfoxide and the emulsifier Wettol® EM31 (wetting agent having an emulsifying and dispersing action based on ethoxylated alkylphenols) in a ratio by volume of solvent/emulsifier of 99:1. The mixture was then made up to 100 ml with water. This stock solution was diluted with the solvent/emulsifier/water mixture described to give the concentration of active compound stated below. Epoxiconazole and metconazole were employed as a commercial finished formulation and diluted with water to the stated concentration of active compound.
(§2) The visually determined percentages of infected leaf areas were converted into efficacies in % of the untreated control.
(§3) The efficacy (E) is calculated as follows using Abbot's formula: […]
(§4) αcorresponds to the fungicidal infection of the treated plants in % and βcorresponds to the fungicidal infection of the untreated (control) plants in %
(§5) An efficacy of 0 means that, the infection level of the treated plants corresponds to that of the untreated control plants; an efficacy of 100 means that the treated plants were not infected.
(§6) The expected efficacies of active compound combinations were determined using Colby's formula (Colby, S.R. “Calculating synergistic and antagonistic responses of herbicide combinations”, Weeds, 15, pp. 20-22, 1967) and compared with the observed efficacies.
(§7) Colby's formula: E=x+y−x•y/100 • E expected efficacy, expressed in % of the untreated control, when using the mixture of the active compounds A and B at the concentrations a and b • x efficacy, expressed in % of the untreated control, when using the active compound A at the concentration a • y efficacy, expressed in % of the untreated control, when using the active compound B at the concentration b
The first two developed leaves of pot-grown wheat seedling were dusted with spores of Puccinia recondita. To ensure the success the artificial inoculation, the plants were transferred to a humid chamber without light and a relative humidity of 95 to 99% and 20 to 22° C. for 24 h. The next day the plants were sprayed to run-off with an aqueous suspension, containing the concentration of active ingredient as described below. The plants were allowed to air-dry. Then the trial plants were cultivated for 8 days in a greenhouse chamber at 22-26° C. and a relative humidity between 65 and 70%. The extent of fungal attack on the leaves was visually assessed as % diseased leaf area. The expected efficacies of mixtures of active compounds were determined using Colby's formula and compared with the observed efficacies.

Puccinia recondita [2] = assay: Preventative control of brown rust on wheat caused by Puccinia recondita; format: in vivo; details: efficacy in % of untreated control (90% infection), read-out: Observed activity (% infection); for inhibition at 1 ppm: sprayed 1 day before inoculation
Description: as §1, §2, §3, §4, §5, §6, §7
The first two developed leaves of pot-grown wheat seedling were sprayed to run-off with an aqueous suspension, containing the concentration of active ingredient as described below. The next day the plants were inoculated with spores of Puccinia recondita. To ensure the success the artificial inoculation, the plants were transferred to a humid chamber without light and a relative humidity of 95 to 99% and 20 to 22° C. for 24 h. Then the trial plants were cultivated for 6 days in a greenhouse chamber at 22-26° C. and a relative humidity between 65 and 70%. The extent of fungal attack on the leaves was visually assessed as % diseased leaf area.
The expected efficacies of mixtures of active compounds were determined using Colby's formula and compared with the observed efficacies.

| Compound | inhibition at 0.063 ppm (Puccinia recondita [1]) [%] | inhibition at 0.25 ppm (Puccinia recondita [1]) [%] | inhibition at 0.25 ppm (Puccinia recondita [2]; 0.25 ppm) [%] | inhibition at 1 ppm (Puccinia recondita [2]) [%] | inhibition at 0.063 ppm (Puccinia recondita [2]; 0.063 ppm) [%] |
| --- | --- | --- | --- | --- | --- |
| Cn1cc(C(=O)Nc2ccccc2[C@@H]2C[C@H]2C2CC2)c(C(F)F)n1 [Compound (Ia), N-(trans-2-bicycloprop-2-ylphenyl)-3-difluoromethyl-1-methyl-1H-pyrazole-4-carboxamide] | 0 | 0 | 0 | 22 | – |
| Fc1ccc([C@]2(Cn3cncn3)O[C@H]2c2ccccc2Cl)cc1 (racemic) [epoxiconazole] | 22 | – | – | – | – |
| CC1(C)CCC(Cc2ccc(Cl)cc2)C1(O)Cn1cncn1 (centres unmarked) [metconazole] | – | 44 | – | 0 | 0 |
